Measured values: US9957261B2 (Hoffmann-La Roche Inc., priority 2014, dated 2018)

Tests used:
[1] = biological target: rat TAAR1 (Rattus norvegicus (Rat), UniProt Q923Y9); assay: Radioligand binding assay on rat TAAR1; settings: for Ki: rat TAAR1, membranes of stably transfected HEK-293 cells, second value of mouse/rat pair
Method: (§1) Construction of TAAR Expression Plasmids and Stably Transfected Cell Lines
(§2) For the construction of expression plasmids the coding sequences of human, rat and mouse TAAR 1 were amplified from genomic DNA essentially as described by Lindemann et al.. The Expand High Fidelity PCR System (Roche Diagnostics) was used with 1.5 mM Mg^2+ and purified PCR products were cloned into pCR2.1-TOPO cloning vector (Invitrogen) following the instructions of the manufacturer. PCR products were subcloned into the pIRESneo2 vector (BD Clontech, Palo Alto, Calif.), and expression vectors were sequence verified before introduction in cell lines.
(§3) HEK293 cells (ATCC # CRL-1573) were cultured essentially as described by Lindemann et al. (2005). For the generation of stably transfected cell lines HEK293 cells were transfected with the pIRESneo2 expression plasmids containing the TAAR coding sequences (described above) with Lipofectamine 2000 (Invitrogen) according to the instructions of the manufacturer, and 24 hrs post transfection the culture medium was supplemented with 1 mg/ml G418 (Sigma, Buchs, Switzerland). After a culture period of about 10 d clones were isolated, expanded and tested for responsiveness to trace amines (all compounds purchased from Sigma) with the cAMP Biotrak Enzyme immunoassay (EIA) System (Amersham) following the non-acetylation EIA procedure provided by the manufacturer.
Radioligand Binding Assay on Rat TAAR1
(§4) Membrane Preparation and Radioligand Binding.
(§5) HEK-293 cells stably expressing rat TAAR1 were maintained at 37° C. and 5% CO2 in DMEM high glucose medium, containing fetal calf serum (10%, heat inactivated for 30 min at 56° C.), penicillin/streptomycin (1%), and 375 μg/ml geneticin (Gibco). Cells were released from culture flasks using trypsin/EDTA, harvested, washed twice with ice-cold PBS (without Ca^2+ and Mg^2+), pelleted at 1′000 rpm for 5 min at 4° C., frozen and stored at −80° C. Frozen pellets were suspended in 20 ml HEPES-NaOH (20 mM, pH 7.4) containing 10 mM EDTA and homogenized with a Polytron (PT 6000, Kinematica) at 14,000 rpm for 20 s. The homogenate was centrifuged at 48,000×g for 30 min at 4° C. Subsequently, the supernatant was removed and discarded, and the pellet resuspended in 20 ml HEPES-NaOH (20 mM, pH 7.4) containing 0.1 mM EDTA using the Polytron (20 s at 14,000 rpm). This procedure was repeated and the final pellet resuspended in HEPES-NaOH containing 0.1 mM EDTA and homogenized using the Polytron. Typically, aliquots of 2 ml membrane portions were stored at −80° C. With each new membrane batch the dissociation constant (Kd) was determined via a saturation curve. […] Nonspecific binding was defined as the amount of [H]—(S)-4-[(ethyl-phenyl-amino)-methyl]-4,5-dihydro-oxazol-2-ylamine bound in the presence of 10 μM unlabeled ligand. All compounds were tested at a broad range of concentrations (10 pM to 10 μM) in duplicates. […] The 96 deep well plates were incubated for 1 hr at 4° C. Incubations were terminated by rapid filtration through Unifilter-96 plates (Packard Instrument Company) and glass filters GF/C (Perkin Elmer) presoaked for 1 hr in polyethylenimine (0.3%) and washed 3 times with 1 ml of cold binding buffer. After addition of 45 μl of Microscint 40 (PerkinElmer) the Unifilter-96 plate was sealed and after 1 hr the radioactivity counted using a TopCount Microplate Scintillation Counter (Packard Instrument Company).

[2] = biological target: mouse TAAR1 (Mus musculus (Mouse), UniProt Q923Y8); assay: Radioligand binding assay on mouse TAAR1; settings: for Ki: mouse TAAR1, membranes of stably transfected HEK-293 cells, first value of mouse/rat pair
Method: as §1, §2, §3
Radioligand Binding Assay on Mouse TAAR1
as §4
as §5, with “expressing mouse” for “expressing rat”, “of ^3[H]—(S)-4-[(ethyl-phenyl-amino)-methyl]-4,5-dihydro-oxazol-2-ylamine” for “of [H]—(S)-4-[(ethyl-phenyl-amino)-methyl]-4,5-dihydro-oxazol-2-ylamine”

Chain of mouse TAAR1 (Q923Y8 whole entry): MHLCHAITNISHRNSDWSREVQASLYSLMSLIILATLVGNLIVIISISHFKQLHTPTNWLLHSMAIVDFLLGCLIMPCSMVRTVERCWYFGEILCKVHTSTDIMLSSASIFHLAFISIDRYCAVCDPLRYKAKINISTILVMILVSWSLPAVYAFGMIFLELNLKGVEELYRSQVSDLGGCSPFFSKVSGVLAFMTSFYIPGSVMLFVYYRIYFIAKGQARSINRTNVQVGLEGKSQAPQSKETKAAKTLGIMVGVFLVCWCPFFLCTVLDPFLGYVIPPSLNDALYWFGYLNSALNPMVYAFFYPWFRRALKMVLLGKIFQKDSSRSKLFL
Chain of rat TAAR1 (Q923Y9 whole entry): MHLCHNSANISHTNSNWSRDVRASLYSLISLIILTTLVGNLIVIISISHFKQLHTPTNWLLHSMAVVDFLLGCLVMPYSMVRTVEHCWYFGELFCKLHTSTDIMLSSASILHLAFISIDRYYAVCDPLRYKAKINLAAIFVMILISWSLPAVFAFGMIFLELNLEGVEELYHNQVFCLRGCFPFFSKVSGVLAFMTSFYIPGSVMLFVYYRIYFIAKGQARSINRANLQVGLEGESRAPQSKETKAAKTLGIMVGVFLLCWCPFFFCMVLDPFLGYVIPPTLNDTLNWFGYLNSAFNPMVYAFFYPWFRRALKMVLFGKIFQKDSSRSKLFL

Compound | Ki [1] | Ki [2] | Kd ([1]; rat TAAR1 membranes, saturation curve, read-out: dissociation constant (Kd) of the radioligand) | Kd ([2]; mouse TAAR1 membranes, saturation curve, read-out: dissociation constant (Kd) of the radioligand)
N[C@H]1CCc2cc(NC(=O)Nc3ccc(C(F)(F)F)cc3)ccc2C1 [Example 24, (S)-1-(6-Amino-5,6,7,8-tetrahydronaphthalen-2-yl)-3-(4-(trifluoromethyl)phenyl)urea] | 0.0003 µM | 0.0011 µM |  | 
Cc1nc(-c2ccc(C(=O)Nc3ccc4c(c3)OC[C@H](N)C4)cc2)cs1 [Example 83, (R)—N-(3-Aminochroman-7-yl)-4-(2-methylthiazol-4-yl)benzamide] | 0.0034 µM | 0.0018 µM |  | 
CCn1nc(C(=O)Nc2ccc3c(c2)OC[C@H](N)C3)c(Br)c1OCC(F)F [Example 92, (R)—N-(3-Aminochroman-7-yl)-4-bromo-5-(2,2-difluoroethoxy)-1-ethyl-1H-pyrazole-3-carboxamide] | 0.0023 µM | 0.0151 µM |  | 
N[C@H]1CCc2cc(NC(=O)c3ccnc(C(F)(F)F)c3)ccc2C1 [Example 45, (S)—N-(6-Amino-5,6,7,8-tetrahydronaphthalen-2-yl)-2-(trifluoromethyl)isonicotinamide] | 0.0063 µM | 0.0117 µM |  | 
COc1ccc(C(=O)Nc2ccc3c(c2)CC[C@H](N)C3)cn1 [Example 21, (S)—N-(6-Amino-5,6,7,8-tetrahydronaphthalen-2-yl)-6-methoxynicotinamide] | 0.0513 µM | 0.0344 µM |  | 
N[C@H]1COc2cc(Nc3ncc(Cl)cn3)ccc2C1 [Example 93, (R)—N7-(5-Chloropyrimidin-2-yl)chroman-3,7-diamine] | 0.0374 µM | 0.042 µM |  | 
N[C@H]1CCc2cc(NC(=O)NCc3ccc(Cl)cc3)ccc2C1 [Example 69, (S)-1-(6-Amino-5,6,7,8-tetrahydronaphthalen-2-yl)-3-(4-chlorobenzyl)urea] | 0.0085 µM | 0.0029 µM |  | 
N[C@H]1CCc2cc(NC(=O)Nc3ccc(C(F)(F)F)nc3)ccc2C1 [Example 16, (S)-1-(6-Amino-5,6,7,8-tetrahydronaphthalen-2-yl)-3-(6-(trifluoromethyl)pyridin-3-yl)urea] | 0.0023 µM | 0.0045 µM |  | 
Cc1ccc(-n2cc(C(=O)Nc3ccc4c(c3)CC[C@H](N)C4)cn2)cc1 [Example 27, (S)—N-(6-Amino-5,6,7,8-tetrahydronaphthalen-2-yl)-1-p-tolyl-1H-pyrazole-4-carboxamide] | 0.0037 µM | 0.0028 µM |  | 
NC1CCc2cc(C(=O)Nc3cnc(C4CC4)nc3)ccc2C1 (centres unmarked) [Example 32, 6-Amino-N-(2-cyclopropylpyrimidin-5-yl)-5,6,7,8-tetrahydronaphthalene-2-carboxamide] | 0.309 µM | 0.105 µM |  | 
COc1cccc(NC(=O)Nc2ccc3c(c2)CC[C@H](N)C3)c1 [Example 67, (S)-1-(6-Amino-5,6,7,8-tetrahydronaphthalen-2-yl)-3-(3-methoxyphenyl)urea] | 0.0044 µM | 0.0075 µM |  | 
N[C@H]1COc2cc(NC(=O)c3ccc(F)c(F)c3)ccc2C1 [Example 87, (R)—N-(3-Aminochroman-7-yl)-3,4-difluorobenzamide] | 0.0189 µM | 0.0009 µM |  | 
N[C@H]1CCc2c(ccc(NC(=O)c3ccc(Cl)nc3)c2Cl)C1 [Example 76, (S)—N-(6-Amino-1-chloro-5,6,7,8-tetrahydronaphthalen-2-yl)-6-chloronicotinamide] | 0.302 µM | > 1.51 µM |  | 
NC1CCc2cc(C(=O)Nc3cnc(C(F)(F)F)cn3)ccc2C1 (centres unmarked) [Example 33, 6-Amino-N-(5-(trifluoromethyl)pyrazin-2-yl)-5,6,7,8-tetrahydronaphthalene-2-carboxamide] | 0.0865 µM | 0.021 µM |  | 
CCOc1ccc(NC(=O)c2ccc3c(c2)CCC(N)C3)cn1 (centres unmarked) [Example 31, 6-Amino-N-(6-ethoxypyridin-3-yl)-5,6,7,8-tetrahydronaphthalene-2-carboxamide] | 0.0434 µM | 0.0247 µM |  | 
N[C@H]1COc2cc(Nc3ncc(C(F)(F)F)cn3)ccc2C1 [Example 80, (R)—N7-(5-(Trifluoromethyl)pyrimidin-2-yl)chroman-3,7-diamine] | 0.0196 µM | 0.0163 µM |  | 
N[C@H]1CCc2cc(NC(=O)c3cccnc3F)ccc2C1 [Example 39, (S)—N-(6-Amino-5,6,7,8-tetrahydronaphthalen-2-yl)-2-fluoronicotinamide] | 0.14 µM | 0.476 µM |  | 
CCCc1cc(C(=O)Nc2ccc3c(c2)CCC(N)C3)nn1CC(F)F (centres unmarked) [Example 3, N-(6-Amino-5,6,7,8-tetrahydronaphthalen-2-yl)-1-(2,2-difluoroethyl)-5-propyl-1H-pyrazole-3-carboxamide] | 0.0035 µM | 0.0132 µM |  | 
CCc1ccc(NC(=O)c2ccc3c(c2)CCC(N)C3)cc1 (centres unmarked) [Example 56, 6-Amino-N-(4-ethylphenyl)-5,6,7,8-tetrahydronaphthalene-2-carboxamide] | 0.0456 µM | 0.0155 µM |  | 
N[C@H]1CCc2cc(Nc3ccc(F)cc3)ccc2C1 [Example 66, (S)—N6-(4-Fluorophenyl)-1,2,3,4-tetrahydronaphthalene-2,6-diamine] | 0.024 µM | 0.171 µM |  | 
CCCc1cc(C(=O)Nc2ccc3c(c2)OC[C@@H](N)C3)nn1CC(F)F [Example 11, (S)—N-(3-Aminochroman-7-yl)-1-(2,2-difluoroethyl)-5-propyl-1H-pyrazole-3-carboxamide] | 0.0096 µM | 0.187 µM |  | 
N[C@H]1COc2cc(NC(=O)c3nccc(Cl)n3)ccc2C1 [Example 82, (R)—N-(3-Aminochroman-7-yl)-4-chloropyrimidine-2-carboxamide] | 0.511 µM | 0.173 µM |  | 
NC1CCc2cc(C(=O)Nc3ccc(F)cc3)ccc2C1 (centres unmarked) [Example 58, 6-Amino-N-(4-fluorophenyl)-5,6,7,8-tetrahydronaphthalene-2-carboxamide] | 0.0964 µM | 0.0569 µM |  | 
CCN(C[C@H]1COC(N)=N1)c1ccccc1 [(S)-4-[(ethyl-phenyl-amino)-methyl]-4,5-dihydro-oxazol-2-ylamine, reference compound] |  |  | ~2.3 nM | ~0.7 nM
N[C@H]1CCc2cc(NC(=O)c3ccc(C(F)(F)F)nc3)ccc2C1 [Example 20, (S)—N-(6-Amino-5,6,7,8-tetrahydronaphthalen-2-yl)-6-(trifluoromethyl)nicotinamide] | 0.0237 µM | 0.0265 µM |  | 
